Among the data in PubChem BioAssay AID1963427 (Molecular Pharmacology Branch, DTP, NCI, 2024) are IC50 and viability, T/C values, retold here.

Where “and” joins values, the source holds several entries; their conditions need not be identical. Equal values may be shown once. Where only a bound is given, the exact number is not on record here.

This test deals with 317291-083-R-J1-PDC complex spheroid growth. In words: Anticancer human tumor 317291-083-R-J1-PDC patient-derived soft tissue sarcoma cell line growth inhibition [Asc]. Particulars: for viability, T/C: stronger effect = lower value. As for the experimental part: Multicellular complex tumor spheroid response to apoptosis pathway targeting inhibitors Alrizomadlin, Pelcitoclax, and Dasminapant in combination with a variety of drugs and investigational agents in selected tumor cell lines
The MDM2 inhibitor alrizomadlin, the Bcl-2/Bcl-xL inhibitor pelcitoclax, and the IAPs inhibitor dasminapant were evaluated both individually and in combination with standard of care and investigational anticancer small molecules within a complex spheroid model of solid tumors. . Complex spheroids include a stromal component modeled by human endothelial cells (HUVEC) and fibroblasts modeled by human mesenchymal stem cells (MSCs). The concentration ranges selected for each drug and investigational agent were based upon clinically achievable concentrations if the clinical Cmax of the agent was known.
Compounds. The drugs and investigational agents: alrizomadlin (APG-115; NSC831270), pelcitoclax (APG-1252; NSC835773), dasminapant (APG-1387;NSC834197), TAK-243 (NSC785004), copanlisib (NSC809693), olaparib (NSC753686), talazoparib (NSC767125), cobimetinib (NSC 768068), eltanexor (KPT-8602, NSC 794443), abemaciclib (NSC 768073), sotorasib (NSC818433), adagrasib (NSC 831453), MRTX-1133 (NSC 836407), Iadademestat (ORY1001, NSC 806812), and RMC-4630 (NSC839698), were obtained from the NCI Developmental Therapeutics Program Chemical Repository. The FDA-approved anticancer drug set is available from the Developmental Therapeutics Program at https://dtp.cancer.gov/organization/dscb/obtaining/available plates.htm. […] The stock solutions were prepared in dimethyl sulfoxide (DMSO, Sigma-Aldrich, St. Louis, MO, cat. D2650) at 800-fold the tested concentration and stored at -70 degrees C prior to their use. All drugs and investigational agents were tested over a range starting from a high concentration at or near the clinical Cmax and decreasing in half-log increments. If the clinical Cmax for an agent had not been determined, the highest concentration tested was 10 microM.
The patient-derived cancer (PDC) cell lines include five colon adenocarcinomas: 186277-243-T-J2-PDC, 616215-338-R-J1-PDC, 439559-082-T-J2-PDC, 463943-066-T-J2-PDC, and 519858-162-T-J1-PDC; three pancreatic carcinomas: 323965-272-R-J2-PDC, 521955-158-R6-J3-PDC, and 521955-158-R2-J5-PDC; two uterine sarcomas: 327498-152-R-J2-PDC and 993429-296-R-J1-PDC; two rhabdomyosarcomas: 755483-174-R-J1-PDC and 772245-204-R-J1-PDC; two soft tissue sarcomas: 126254-015-R-J1-PDC and 494315-158-R-J1-PDC; two malignant fibrous histiocytomas: 317291-083-R-J1-PDC and 596521-263-R-J1-PDC; two breast carcinomas: 171881-019-R-J1-PDC and 885512-296-R-J2-PDC; and one ovarian carcinoma: 6556581-035-R-J-PDC were obtained from the NCI PDMR, (https://pdmr.cancer.gov). The established cell lines HSSY-2 synovial sarcoma (RRID:CVCL 8719), SYO-1 synovial sarcoma (RRID:CVCL_7146), MPNST malignant peripheral neural sheath tumor were obtained from the Sloan Kettering Institute. The following established cell lines were purchased from the American Type Culture Collection (ATCC, Manassas, VA), Sor the received from the NCI repository:, PANC-1 pancreatic carcinoma (CRL-1469, RRID:CVCL_0480), OVCAR-5 ovarian carcinoma (RRID:CVCL_1628), OVCAR-8 ovarian carcinoma (RRID:CVCL_1629), , MCF-7 breast carcinoma (CRL-12584, RRID:CVCL_0031), MDA-MB-231 breast carcinoma (CRL-12532, RRID:CVCL_0062), NCI-H1876 small cell lung carcinoma (CRL-5902, RRID:CVCL_1503), NCI-H510A small cell lung carcinoma (HTB-184, RRID:CVCL_1565), NCI-H1417 (CRL-5869, RRID:CVCL_1469), and NCI-H196 small cell lung carcinoma (CRL-5823, RRID:CVCL_1509). Dr. Peter Houghton (Greehey Children's Cancer Research Institute, University of Texas Health Science Center, San Antonio, TX) provided Rh-18 rhabdomyosarcoma (RRID:CVCL_1659). Pooled donor human umbilical vein endothelial cells (HUVEC, Lonza, cat. CC-2519) and human mesenchymal stem cells (hMSC, Lonza, cat. PT-2501) were purchased from Lonza (Walkersville, MD).
Cell Culture. […]
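Further: compound exposure lasted seven days after spheroids formed for three days.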
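Wherever viability, T/C is given: 100% = DMSO vehicle control wells.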

As a reminder, the IC50 is the concentration that gives 50% inhibition. One may read the viability, T/C as the ratio of treated to control. On to `Cc1nc(N2CCC3(CC2)COC(C)C3N)c(CO)nc1Sc1ccnc(N)c1Cl` (configuration not stated) + CCN1C(C(=O)NC23CCC(C(=O)O)(CC2)CC3)C(c2cccc(Cl)c2F)C2(C(=O)Nc3cc(Cl)ccc32)C12CCCCC2, for which the IC50 is above 3 µM (curve of first compound, second compound 0.00949 µM); 2.83 µM (curve of first compound, second compound 0.03 µM); above 3 µM (curve of first compound, second compound 0.0949 µM); above 3 µM (curve of first compound, second compound 0.3 µM); above 3 µM (curve of first compound, second compound 0.949 µM); 2.74 µM (curve of first compound, second compound 3 µM). The viability, T/C was 103% (second compound 0.00949 µM, first compound 0.00949 µM); 96% (second compound 0.00949 µM, first compound 0.03 µM); 94.9% (second compound 0.00949 µM, first compound 0.0949 µM); 74.2% (second compound 0.00949 µM, first compound 0.3 µM); 95.7% (second compound 0.00949 µM, first compound 0.949 µM); 53.6% (second compound 0.00949 µM, first compound 3 µM). Further, the viability, T/C runs as follows: (second compound 0.03 µM, first compound 0.00949 µM) 108%; (second compound 0.03 µM, first compound 0.03 µM) 107%; (second compound 0.03 µM, first compound 0.0949 µM) 96.7%; (second compound 0.03 µM, first compound 0.3 µM) 90.8%; (second compound 0.03 µM, first compound 0.949 µM) 69%; (second compound 0.03 µM, first compound 3 µM) 49%. For the same compound, the viability, T/C is 104% (second compound 0.0949 µM, first compound 0.00949 µM); 116% (second compound 0.0949 µM, first compound 0.03 µM); 92.5% (second compound 0.0949 µM, first compound 0.0949 µM); 78.9% (second compound 0.0949 µM, first compound 0.3 µM); 70.8% (second compound 0.0949 µM, first compound 0.949 µM); 69.4% (second compound 0.0949 µM, first compound 3 µM). The viability, T/C by setting is: (second compound 0.3 µM, first compound 0.00949 µM) 120%; (second compound 0.3 µM, first compound 0.03 µM) 106%; (second compound 0.3 µM, first compound 0.0949 µM) 95.5%; (second compound 0.3 µM, first compound 0.3 µM) 97.9%; (second compound 0.3 µM, first compound 0.949 µM) 73.7%; (second compound 0.3 µM, first compound 3 µM) 56.1%. For the same compound, the viability, T/C is, setting by setting: (second compound 0.949 µM, first compound 0.00949 µM) 86.1%; (second compound 0.949 µM, first compound 0.03 µM) 113%; (second compound 0.949 µM, first compound 0.0949 µM) 93.4%; (second compound 0.949 µM, first compound 0.3 µM) 84.8%; (second compound 0.949 µM, first compound 0.949 µM) 75.7%; (second compound 0.949 µM, first compound 3 µM) 59.2%. Besides, the viability, T/C was 82.2% (second compound 3 µM, first compound 0.00949 µM); 81.7% (second compound 3 µM, first compound 0.03 µM); 82.8% (second compound 3 µM, first compound 0.0949 µM); 82.3% (second compound 3 µM, first compound 0.3 µM); 66.7% (second compound 3 µM, first compound 0.949 µM); 48.5% (second compound 3 µM, first compound 3 µM).

Consider `O=C(c1cc(Cc2n[nH]c(=O)c3ccccc23)ccc1F)N1CCN(C(=O)C2CC2)CC1`, for which the viability, T/C was 106% and 111% and 91.2% (compound 0.0316 µM); 76.1% and 100% and 97% (compound 0.1 µM); 110% and 87.8% and 93.8% (compound 0.316 µM); 83% and 101% and 88.7% (compound 1 µM); 82.7% and 84.3% and 47.8% (compound 3.16 µM); 42.5% and 46.9% and 32.5% (compound 10 µM). In addition, the IC50 (curve of compound) was 8.07 µM and 9.24 µM and 2.97 µM.

Take `COc1c(OCCCN2CCOCC2)ccc2c3n(c(=NC(=O)c4cnc(N)nc4)nc12)CCN3`: the viability, T/C reads like this: (compound 0.00316 µM) 92% and 97.6% and 96.2%; (compound 0.01 µM) 90.5% and 100% and 93.7%; (compound 0.0316 µM) 73.5% and 93.8% and 80.6%; (compound 0.1 µM) 49.4% and 56.9% and 59.9%; (compound 0.316 µM) 25.9% and 37.9% and 33.4%; (compound 1 µM) 12.6% and 21.9% and 15.6%. Besides, under “curve of compound”, the IC50 was 0.149 µM and 0.158 µM and 0.103 µM.

Turning to `O=C(c1ccc(F)c(F)c1Nc1ccc(I)cc1F)N1CC(O)([C@@H]2CCCCN2)C1`, the viability, T/C is, setting by setting: (compound 0.00316 µM) 97% and 91.5% and 98.6%; (compound 0.01 µM) 102% and 91.8% and 91%; (compound 0.0316 µM) 109% and 88.6% and 93.6%; (compound 0.1 µM) 94.1% and 119% and 117%; (compound 0.316 µM) 65.2% and 71.6% and 81.1%; (compound 1 µM) 19.6% and 18.1% and 25%. For the same compound, the IC50 (curve of compound) was 0.462 µM and 0.504 µM and 0.599 µM.

Turning to `C=CC(=O)N1CCN(c2nc(=O)n(-c3c(C)ccnc3C(C)C)c3nc(-c4c(O)cccc4F)c(F)cc23)C(C)C1` (configuration not stated), the viability, T/C (compound 0.0316 µM) was 94.7% and 115% and 91.3%; the viability, T/C (compound 0.1 µM) is 116% and 91.4% and 84%; the viability, T/C (compound 0.316 µM) is 97.3% and 95.1% and 99.8%; the viability, T/C (compound 1 µM) was 117% and 90.1% and 95.4%; the viability, T/C (compound 3.16 µM) was 92.4% and 89.8% and 78.8%; the viability, T/C (compound 10 µM) is 61% and 73.1% and 78%. The IC50 (curve of compound) is above 10 µM.

Regarding `C=C(F)C(=O)N1CCN(c2nc(OCC3CCCN3C)nc3c2CCN(c2cccc4cccc(Cl)c24)C3)CC1CC#N` (configuration not stated), the viability, T/C is, setting by setting: (compound 0.0316 µM) 83.4% and 107% (2×); (compound 0.1 µM) 76.7% and 88.1% and 99.1%; (compound 0.316 µM) 93.2% and 95.1% and 113%; (compound 1 µM) 89% and 89.6% and 87.7%; (compound 3.16 µM) 47% and 39% and 55.3%; (compound 10 µM) 0.16% and 0.29% and 0.23%. The IC50 (curve of compound) is 2.89 µM and 2.46 µM and 3.47 µM.
